Assay results taken from patent publication US8592464B2, “Nitric oxide furoxan derivative compounds endowed with antitumoral activity” (Humanitas Mirasole S.p.A., priority 2009, dated 2013).

System: cytolytic activity of CD8+ T cells against allogenic (MBL-2) target cells
Assay: Chromium release assay (in vitro cytotoxicity), B6+C26GM culture: immunosuppressed splenocytes from tumor-bearing mice
Assay type: cell-based
Settings: strong immunosuppressive conditions, 5-h 51Cr-release

Row | SMILES | Range of concentration to rescue cytolytic activity
1 | CC(=O)OCc1no[n+]([O-])c1C#N [AT25] | INEFFECTIVE
2 | NC(=O)c1c(COC(=O)c2ccccc2O)no[n+]1[O-] [AT38] | 25 µM
3 | NC(=O)c1c(COC(=O)c2ccccc2)no[n+]1[O-] [AT44] | INEFFECTIVE
4 | NC(=O)c1c(S(=O)(=O)c2ccccc2)no[n+]1[O-] [AT94] | INEFFECTIVE
5 | NC(=O)c1c(COC(=O)/C=C/c2ccccc2O)no[n+]1[O-] [AT113] | 100 µM
6 | CC(=O)OCc1no[n+]([O-])c1C(N)=O [AT24] | INEFFECTIVE
7 | CC(=O)Oc1ccccc1C(=O)OCc1no[n+]([O-])c1C(N)=O [AT27] | 25 µM
8 | NC(=O)c1c(COC(=O)c2cccc(O)c2)no[n+]1[O-] [AT47] | 50 µM
9 | NC(=O)c1c(COc2ccc(C(=O)O)c(O)c2)no[n+]1[O-] [AT43] | INEFFECTIVE
10 | NC(=O)c1c(COC(=O)c2ccc(O)cc2)no[n+]1[O-] [AT45] | 100 µM
11 | NC(=O)c1c(COC(=O)/C=C/c2ccccc2)no[n+]1[O-] [AT110] | 100 µM
12 | NC(=O)c1c(COC(=O)c2cccnc2)no[n+]1[O-] [AT112] | 200 µM

System: cytolytic activity of CD8+ T cells against allogenic (MBL-2) target cells
Assay: Chromium release assay (in vitro cytotoxicity), B6+Balb+3% CD11b+ mixed leucocytes culture
Assay type: cell-based, mice
Settings: 5-h 51Cr-release

Row | SMILES | Range of concentration to rescue cytolytic activity
13 | NC(=O)c1c(COC(=O)c2ccccc2)no[n+]1[O-] [AT44] | 76 µM
14 | CC(=O)OCc1no[n+]([O-])c1C(N)=O [AT24] | INEFFECTIVE
15 | NC(=O)c1c(COC(=O)c2ccc(O)cc2)no[n+]1[O-] [AT45] | 72 µM

System: coloncarcinoma26
Assay: Immunohistochemistry of tumors of tumor-bearing mice after oral AT38
Assay type: in vivo, BALB/c mice
Settings: 10, 30 and 100 mg/kg/day orally for nine days; compared to untreated controls

Row | SMILES | CD3+ T tumor infiltrating lymphocytes | nitrotyrosine staining
16 | NC(=O)c1c(COC(=O)c2ccccc2O)no[n+]1[O-] [AT38] | enhancement | strong reduction

System: not given
Assay: not given
Settings: not given

Row | SMILES | melting point [°C]
17 | NC(=O)c1c(COC(=O)c2ccc([N+](=O)[O-])cc2)no[n+]1[O-] (hydrate or solvate) | 172 to 173
18 | NC(=O)c1c(COC(=O)c2cccc(O)c2)no[n+]1[O-] (hydrate or solvate) | 203 to 204
19 | NC(=O)c1c(COC(=O)c2ccc(F)cc2)no[n+]1[O-] (hydrate or solvate) | 163 to 164
20 | NC(=O)c1c(COC(=O)c2ccc(Cl)cc2)no[n+]1[O-] | 171 to 172
21 | NC(=O)c1c(COC(=O)c2ccc(O)cc2)no[n+]1[O-] (hydrate or solvate) | 241 to 242
22 | NC(=O)c1c(COC(=O)c2ccccc2)no[n+]1[O-] (hydrate or solvate) | 163 to 165
23 | N#Cc1ccc(C(=O)OCc2no[n+]([O-])c2C(N)=O)cc1 | 190 to 191
24 | NC(=O)c1c(COC(=O)c2ccc(N)cc2)no[n+]1[O-] (hydrate or solvate) | 206 to 208
25 | Cc1ccc(C(=O)OCc2no[n+]([O-])c2C(N)=O)cc1 (hydrate or solvate) | 149 to 150
26 | NC(=O)c1c(COC(=O)c2ccccc2O)no[n+]1[O-] (hydrate or solvate) | 176 to 177
27 | COc1ccc(C(=O)OCc2no[n+]([O-])c2C(N)=O)cc1 (hydrate or solvate) | 175 to 176
